Legend:
Carbonic anhydrase 9 [1] = target: T1, Carbonic anhydrase 9 (Homo sapiens, UniProt Q16790); assay: Inhibition of recombinant human carbonic anhydrase 9 preincubated for 15 mins by phenol red dye based stopped flow CO2 hydration assay
Carbonic anhydrase 2 = Carbonic anhydrase 2 (Homo sapiens, UniProt P00918); assay: Inhibition of recombinant human carbonic anhydrase 2 preincubated for 15 mins by phenol red dye based stopped flow CO2 hydration assay
Carbonic anhydrase 12 = Carbonic anhydrase 12 (Homo sapiens, UniProt O43570); assay: Inhibition of recombinant human carbonic anhydrase 12 preincubated for 15 mins by phenol red dye based stopped flow CO2 hydration assay
Chain of Carbonic anhydrase 12 (O43570 whole entry): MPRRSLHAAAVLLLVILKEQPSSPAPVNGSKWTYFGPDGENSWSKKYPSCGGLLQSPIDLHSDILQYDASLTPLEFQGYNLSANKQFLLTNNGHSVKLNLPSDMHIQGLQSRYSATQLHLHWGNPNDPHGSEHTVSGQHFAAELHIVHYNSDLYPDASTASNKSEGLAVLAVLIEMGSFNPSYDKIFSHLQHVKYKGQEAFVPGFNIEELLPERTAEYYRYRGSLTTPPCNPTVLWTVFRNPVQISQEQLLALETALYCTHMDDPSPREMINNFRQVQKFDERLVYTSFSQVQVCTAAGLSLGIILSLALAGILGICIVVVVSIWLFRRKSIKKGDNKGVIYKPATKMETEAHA

Carbonic anhydrase 1 = Carbonic anhydrase 1 (Homo sapiens, UniProt P00915); assay: Inhibition of recombinant human carbonic anhydrase 1 preincubated for 15 mins by phenol red dye based stopped flow CO2 hydration assay
Chain of Carbonic anhydrase 1 (P00915 whole entry): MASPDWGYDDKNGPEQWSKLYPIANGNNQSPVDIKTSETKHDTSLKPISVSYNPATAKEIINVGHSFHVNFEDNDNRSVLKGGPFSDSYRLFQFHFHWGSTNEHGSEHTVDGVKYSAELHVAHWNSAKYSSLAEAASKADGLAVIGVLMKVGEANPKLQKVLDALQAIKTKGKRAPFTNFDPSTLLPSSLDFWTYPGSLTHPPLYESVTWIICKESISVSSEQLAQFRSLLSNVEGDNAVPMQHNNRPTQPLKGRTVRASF

Carbonic anhydrase 9 [2] = target: T1, Carbonic anhydrase 9; settings: at 1 µM
Description: Inhibition of recombinant human carbonic anhydrase 9 at 1 uM preincubated for 15 mins by phenol red dye based stopped flow CO2 hydration assay (Rvb = 0%)

Carbonic anhydrase 9 [3] = target: T1, Carbonic anhydrase 9; settings: at 0.01 µM
Description: Inhibition of recombinant human carbonic anhydrase 9 at 0.01 uM preincubated for 15 mins by phenol red dye based stopped flow CO2 hydration assay (Rvb = 0%)

Carbonic anhydrase 9 [4] = target: T1, Carbonic anhydrase 9; settings: at 0.1 µM
Description: Inhibition of recombinant human carbonic anhydrase 9 at 0.1 uM preincubated for 15 mins by phenol red dye based stopped flow CO2 hydration assay (Rvb = 0%)

Carbonic anhydrase 9 [5] = target: T1, Carbonic anhydrase 9; settings: at 1 nM
IGROV-1 = assay: Growth inhibition of human IGROV1 cells at 10 uM incubated for 48 hrs by sulforhodamine B assay relative to control; assay type: functional; settings: IGROV-1, 48 h, read-out: GI
OVCAR-4 = assay: Growth inhibition of human OVCAR4 cells at 10 uM incubated for 48 hrs by sulforhodamine B assay relative to control; assay type: functional; settings: OVCAR-4, 48 h, read-out: GI
EKVX = assay: Growth inhibition of human EKVX cells at 10 uM incubated for 48 hrs by sulforhodamine B assay relative to control; assay type: functional; settings: read-out: GI
KM12 = assay: Growth inhibition of human KM12 cells at 10 uM incubated for 48 hrs by sulforhodamine B assay relative to control; assay type: functional; settings: KM12, 48 h, read-out: GI
MOLT-4 = assay: Growth inhibition of human MOLT4 cells at 10 uM incubated for 48 hrs by sulforhodamine B assay relative to control; assay type: functional; settings: MOLT-4, 48 h, read-out: GI
MCF7 = assay: Growth inhibition of human MCF7 cells at 10 uM incubated for 48 hrs by sulforhodamine B assay relative to control; assay type: functional; settings: MCF7, 48 h, read-out: GI
NCI-H226 = assay: Growth inhibition of human NCI-H226 cells at 10 uM incubated for 48 hrs by sulforhodamine B assay relative to control; assay type: functional; settings: NCI-H226, 48 h, read-out: GI
DU-145 = assay: Growth inhibition of human DU145 cells at 10 uM incubated for 48 hrs by sulforhodamine B assay relative to control; assay type: functional; settings: DU-145, 48 h, read-out: GI
SK-OV-3 = assay: Growth inhibition of human SKOV3 cells at 10 uM incubated for 48 hrs by sulforhodamine B assay relative to control; assay type: functional; settings: SK-OV-3, 48 h, read-out: GI
786-0 = assay: Growth inhibition of human 786-0 cells at 10 uM incubated for 48 hrs by sulforhodamine B assay relative to control; assay type: functional; settings: 786-0, 48 h, read-out: GI
CAKI-1 = assay: Growth inhibition of human Caki1 cells at 10 uM incubated for 48 hrs by sulforhodamine B assay relative to control; assay type: functional; settings: CAKI-1, 48 h, read-out: GI
TK-10 = assay: Growth inhibition of human TK10 cells at 10 uM incubated for 48 hrs by sulforhodamine B assay relative to control; assay type: functional; settings: TK-10, 48 h, read-out: GI
NCI-H522 = assay: Growth inhibition of human NCI-H522 cells at 10 uM incubated for 48 hrs by sulforhodamine B assay relative to control; assay type: functional; settings: NCI-H522, 48 h, read-out: GI
A549 = assay: Growth inhibition of human A549/ATCC cells at 10 uM incubated for 48 hrs by sulforhodamine B assay relative to control; assay type: functional; settings: A549, 48 h, read-out: GI
K562 = assay: Growth inhibition of human K562 cells at 10 uM incubated for 48 hrs by sulforhodamine B assay relative to control; assay type: functional; settings: K562, 48 h, read-out: GI
UO-31 = assay: Growth inhibition of human UO31 cells at 10 uM incubated for 48 hrs by sulforhodamine B assay relative to control; assay type: functional; settings: UO-31, 48 h, read-out: GI
RPMI-8226 = assay: Growth inhibition of human RPMI8226 cells at 10 uM incubated for 48 hrs by sulforhodamine B assay relative to control; assay type: functional; settings: RPMI-8226, 48 h, read-out: GI
SW-620 = assay: Growth inhibition of human SW620 cells at 10 uM incubated for 48 hrs by sulforhodamine B assay relative to control; assay type: functional; settings: SW-620, 48 h, read-out: GI
UACC-62 = assay: Growth inhibition of human UACC62 cells at 10 uM incubated for 48 hrs by sulforhodamine B assay relative to control; assay type: functional; settings: UACC-62, 48 h, read-out: GI
ACHN = assay: Growth inhibition of human ACHN cells at 10 uM incubated for 48 hrs by sulforhodamine B assay relative to control; assay type: functional; settings: read-out: GI
A498 = assay: Growth inhibition of human A498 cells at 10 uM incubated for 48 hrs by sulforhodamine B assay relative to control; assay type: functional; settings: A498, 48 h, read-out: GI
HCT-116 = assay: Growth inhibition of human HCT116 cells at 10 uM incubated for 48 hrs by sulforhodamine B assay relative to control; assay type: functional; settings: HCT-116, 48 h, read-out: GI
SNB-75 = assay: Growth inhibition of human SNB75 cells at 10 uM incubated for 48 hrs by sulforhodamine B assay relative to control; assay type: functional; settings: SNB-75, 48 h, read-out: GI
CCRF-CEM = assay: Growth inhibition of human CCRF-CEM cells at 10 uM incubated for 48 hrs by sulforhodamine B assay relative to control; assay type: functional; settings: read-out: GI
MDA-MB-231 = assay: Growth inhibition of human MDA-MB-231 cells at 10 uM incubated for 48 hrs by sulforhodamine B assay relative to control; assay type: functional; settings: MDA-MB-231, 48 h, read-out: GI
PC-3 = assay: Growth inhibition of human PC3 cells at 10 uM incubated for 48 hrs by sulforhodamine B assay relative to control; assay type: functional; settings: PC-3, 48 h, read-out: GI
OVCAR-5 = assay: Growth inhibition of human OVCAR5 cells at 10 uM incubated for 48 hrs by sulforhodamine B assay relative to control; assay type: functional; settings: OVCAR-5, 48 h, read-out: GI
OVCAR-8 = assay: Growth inhibition of human OVCAR8 cells at 10 uM incubated for 48 hrs by sulforhodamine B assay relative to control; assay type: functional; settings: OVCAR-8, 48 h, read-out: GI
MDA-MB-468 = assay: Growth inhibition of human MDA-MB-468 cells at 10 uM incubated for 48 hrs by sulforhodamine B assay relative to control; assay type: functional; settings: MDA-MB-468, 48 h, read-out: GI
HOP-62 = assay: Growth inhibition of human HOP62 cells at 10 uM incubated for 48 hrs by sulforhodamine B assay relative to control; assay type: functional; settings: HOP-62, 48 h, read-out: GI
SF-539 = assay: Growth inhibition of human SF539 cells at 10 uM incubated for 48 hrs by sulforhodamine B assay relative to control; assay type: functional; settings: SF-539, 48 h, read-out: GI
T47D = assay: Growth inhibition of human T47D cells at 10 uM incubated for 48 hrs by sulforhodamine B assay relative to control; assay type: functional; settings: read-out: GI
RXF 393 = assay: Growth inhibition of human RXF393 cells at 10 uM incubated for 48 hrs by sulforhodamine B assay relative to control; assay type: functional; settings: RXF 393, 48 h, read-out: GI
NCI/ADR-RES = assay: Growth inhibition of human NCI/ADR-RES cells at 10 uM incubated for 48 hrs by sulforhodamine B assay relative to control; assay type: functional; settings: read-out: GI
BT-549 = assay: Growth inhibition of human BT549 cells at 10 uM incubated for 48 hrs by sulforhodamine B assay relative to control; assay type: functional; settings: BT-549, 48 h, read-out: GI
HCT-15 = assay: Growth inhibition of human HCT15 cells at 10 uM incubated for 48 hrs by sulforhodamine B assay relative to control; assay type: functional; settings: HCT-15, 48 h, read-out: GI
NCI-H460 = assay: Growth inhibition of human NCI-H460 cells at 10 uM incubated for 48 hrs by sulforhodamine B assay relative to control; assay type: functional; settings: NCI-H460, 48 h, read-out: GI

## CCN1C(=O)/C(=N\Nc2ccc(S(N)(=O)=O)cc2)c2ccccc21
Carbonic anhydrase 9 [1]
  Ki: 25.8 nM

## CN1C(=O)/C(=N\Nc2ccc(S(N)(=O)=O)cc2)c2cc(Br)ccc21
Carbonic anhydrase 9 [1]
  Ki: 40.1 nM

## CCOC(=O)CN1C(=O)/C(=N\Nc2ccc(S(N)(=O)=O)cc2)c2ccccc21
Carbonic anhydrase 9 [1]
  Ki: 15.9 nM

## NS(=O)(=O)c1ccc(N/N=C2\C(=O)Nc3ccc(Cl)cc32)cc1 [GW280670X]
Carbonic anhydrase 2
  Ki: 35.9 nM
Carbonic anhydrase 9 [1]
  Ki: 8.3 nM
Carbonic anhydrase 12
  Ki: 11.9 nM
Carbonic anhydrase 1
  Ki: 1810 nM

## CCN1C(=O)/C(=N\Nc2ccc(S(N)(=O)=O)cc2)c2cc(Br)ccc21
Carbonic anhydrase 9 [1]
  Ki: 42 nM

## CCCN1C(=O)/C(=N\Nc2ccc(S(N)(=O)=O)cc2)c2ccccc21
Carbonic anhydrase 9 [1]
  Ki: 28.6 nM

## CN1C(=O)/C(=N\Nc2ccc(S(N)(=O)=O)cc2)c2ccccc21
Carbonic anhydrase 9 [2]
  inhibition: 81%
Carbonic anhydrase 9 [3]
  inhibition: 51%
Carbonic anhydrase 9 [4]
  inhibition: 75%
Carbonic anhydrase 9 [1]
  Ki: 9.4 nM
Carbonic anhydrase 9 [5]
  inhibition: 17%

## NS(=O)(=O)c1ccc(N/N=C2\C(=O)Nc3ccc(Br)cc32)cc1
Carbonic anhydrase 2
  Ki: 95.6 nM
Carbonic anhydrase 9 [1]
  Ki: 24.8 nM
Carbonic anhydrase 12
  Ki: 65.9 nM
Carbonic anhydrase 1
  Ki: 3710 nM

## NS(=O)(=O)c1ccc(N/N=C2\C(=O)Nc3ccccc32)cc1
Carbonic anhydrase 2
  Ki: 63.3 nM
Carbonic anhydrase 9 [1]
  Ki: 15.5 nM
Carbonic anhydrase 12
  Ki: 30.1 nM
Carbonic anhydrase 1
  Ki: 467 nM

## CCOC(=O)CN1C(=O)/C(=N\Nc2ccc(S(N)(=O)=O)cc2)c2cc(Cl)ccc21
IGROV-1
  inhibition of growth at 10 µM: 13%
OVCAR-4
  inhibition of growth at 10 µM: 10%
EKVX
  inhibition of growth at 10 µM: 16%
KM12
  inhibition of growth at 10 µM: 12%
MOLT-4
  inhibition of growth at 10 µM: 21%
Carbonic anhydrase 9 [2]
  inhibition: 76%
Carbonic anhydrase 9 [3]
  inhibition: 42%
MCF7
  inhibition of growth at 10 µM: 21%
NCI-H226
  inhibition of growth at 10 µM: 18%
DU-145
  inhibition of growth at 10 µM: 10%
SK-OV-3
  inhibition of growth at 10 µM: 10%
786-0
  inhibition of growth at 10 µM: 10%
Carbonic anhydrase 9 [4]
  inhibition: 66%
CAKI-1
  inhibition of growth at 10 µM: 24%
TK-10
  inhibition of growth at 10 µM: 29%
NCI-H522
  inhibition of growth at 10 µM: 18%
Carbonic anhydrase 9 [1]
  Ki: 38.8 nM
A549
  inhibition of growth at 10 µM: 17%
K562
  inhibition of growth at 10 µM: 15%
UO-31
  inhibition of growth at 10 µM: 18%
RPMI-8226
  inhibition of growth at 10 µM: 11%
SW-620
  inhibition of growth at 10 µM: 10%
UACC-62
  inhibition of growth at 10 µM: 24%
ACHN
  inhibition of growth at 10 µM: 30%
Carbonic anhydrase 9 [5]
  inhibition: 11%
A498
  inhibition of growth at 10 µM: 10%
HCT-116
  inhibition of growth at 10 µM: 10%

## CCN1C(=O)/C(=N\Nc2ccc(S(N)(=O)=O)cc2)c2cc(Cl)ccc21
Carbonic anhydrase 9 [1]
  Ki: 8.4 nM

## CCCN1C(=O)/C(=N\Nc2ccc(S(N)(=O)=O)cc2)c2cc(Cl)ccc21
Carbonic anhydrase 9 [1]
  Ki: 13.1 nM

## CCCN1C(=O)/C(=N\Nc2ccc(S(N)(=O)=O)cc2)c2cc(Br)ccc21
SNB-75
  inhibition of growth at 10 µM: 27%
CCRF-CEM
  inhibition of growth at 10 µM: 14%
MDA-MB-231
  inhibition of growth at 10 µM: 10%
EKVX
  inhibition of growth at 10 µM: 11%
PC-3
  inhibition of growth at 10 µM: 24%
OVCAR-5
  inhibition of growth at 10 µM: 11%
MOLT-4
  inhibition of growth at 10 µM: 12%
MCF7
  inhibition of growth at 10 µM: 20%
NCI-H226
  inhibition of growth at 10 µM: 18%
OVCAR-8
  inhibition of growth at 10 µM: 24%
MDA-MB-468
  inhibition of growth at 10 µM: 14%
HOP-62
  inhibition of growth at 10 µM: 13%
TK-10
  inhibition of growth at 10 µM: 10%
NCI-H522
  inhibition of growth at 10 µM: 31%
SF-539
  inhibition of growth at 10 µM: 13%
Carbonic anhydrase 9 [1]
  Ki: 55.8 nM
A549
  inhibition of growth at 10 µM: 19%
T47D
  inhibition of growth at 10 µM: 19%
K562
  inhibition of growth at 10 µM: 21%
UO-31
  inhibition of growth at 10 µM: 18%
RXF 393
  inhibition of growth at 10 µM: 23%
RPMI-8226
  inhibition of growth at 10 µM: 26%
NCI/ADR-RES
  inhibition of growth at 10 µM: 16%
BT-549
  inhibition of growth at 10 µM: 10%
HCT-15
  inhibition of growth at 10 µM: 12%
UACC-62
  inhibition of growth at 10 µM: 30%
ACHN
  inhibition of growth at 10 µM: 23%
NCI-H460
  inhibition of growth at 10 µM: 22%
HCT-116
  inhibition of growth at 10 µM: 30%
